Source: patent US7235557B2, “Compounds and their uses” (MGI GP, Inc., priority 2000, dated 2007)

Molecular target: T1, purified recombinant human PARP (Homo sapiens, UniProt P09874)
T1 construct: purchased Trevigan (Gaithersburg, Md.)
Assay: PARP enzyme assay (IC50)
Type: biochemical
Conditions: IC50 (μM), approximate IC50 values, [3H]NAD
Experimental: The reaction is initiated by adding enzyme and incubating the mixture at 25° C. After 2 minutes of incubation, the reaction is terminated by adding 500 microliters of ice cold 30% (w/v) trichloroacetic acid. The precipitate formed is transferred onto a glass fiber filter Packard Unifilter-GF/C) and washed three times with 70% ethanol. After the filter is dried, the radioactivity is determined by scintillation counting.

T1 sequence (P09874 whole entry): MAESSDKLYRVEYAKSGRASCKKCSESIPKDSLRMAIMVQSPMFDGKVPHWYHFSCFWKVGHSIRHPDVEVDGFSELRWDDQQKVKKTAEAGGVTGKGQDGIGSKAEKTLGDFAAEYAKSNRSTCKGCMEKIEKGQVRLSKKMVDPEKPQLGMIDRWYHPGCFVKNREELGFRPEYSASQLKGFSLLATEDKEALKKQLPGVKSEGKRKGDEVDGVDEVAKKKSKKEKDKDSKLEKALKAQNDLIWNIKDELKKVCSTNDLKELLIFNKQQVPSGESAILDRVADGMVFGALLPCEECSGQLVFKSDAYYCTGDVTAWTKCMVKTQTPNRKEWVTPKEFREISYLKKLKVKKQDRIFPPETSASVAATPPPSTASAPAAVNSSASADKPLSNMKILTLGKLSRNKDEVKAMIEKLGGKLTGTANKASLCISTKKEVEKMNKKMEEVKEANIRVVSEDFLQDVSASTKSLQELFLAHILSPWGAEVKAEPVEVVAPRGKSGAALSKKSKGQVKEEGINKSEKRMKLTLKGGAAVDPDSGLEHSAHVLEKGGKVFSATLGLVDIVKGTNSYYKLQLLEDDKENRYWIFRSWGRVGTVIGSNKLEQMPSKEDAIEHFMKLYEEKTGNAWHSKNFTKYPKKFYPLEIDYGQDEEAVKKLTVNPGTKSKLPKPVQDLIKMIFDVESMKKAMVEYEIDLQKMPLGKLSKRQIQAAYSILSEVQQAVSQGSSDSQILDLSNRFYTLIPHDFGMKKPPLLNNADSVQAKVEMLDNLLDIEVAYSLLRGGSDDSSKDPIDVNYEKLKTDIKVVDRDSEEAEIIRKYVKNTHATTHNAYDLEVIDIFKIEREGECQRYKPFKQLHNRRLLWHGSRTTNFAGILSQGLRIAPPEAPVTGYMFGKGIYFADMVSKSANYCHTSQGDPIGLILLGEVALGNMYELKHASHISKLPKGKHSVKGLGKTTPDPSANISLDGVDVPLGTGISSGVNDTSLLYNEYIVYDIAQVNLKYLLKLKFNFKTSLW

SMILES	IC50 [µM]
CN(Cc1ccccc1)Cc1nc2cccc3c2n1CCNC3=O [drawing 162]	0.088
O=c1[nH]c2ccc(N3C[C@@H]4C[C@H]3CN4)nc2c2ccccc12	0.042
CN(Cc1ccccc1)Cc1nc2cccc3c2n1CCNC3=O [drawing 179]	0.166
Cc1nc2cccc3c2n1CCNC3=O	0.141
O=C1NCCn2c(Cc3ccccc3)nc3cccc1c32	0.108

Same assay, conditions: approximate IC50 values, [3H]NAD, read-out: IC50

SMILES	IC50 [µM]
O=C1NN=C(c2ccccc2)c2c[nH]c3cccc1c23	0.021
CN(C)CCN(C)CC1=NNC(=O)c2cccc3[nH]cc1c23	0.035
O=C1NCCn2c(-c3ccc4ccccc4c3)nc3cccc1c32	0.032
O=c1[nH]c2ccc(N3CCNCC3)nc2c2ccccc12	0.045
CCCCCCN(CCCCCC)Cc1nc2cccc3c2n1CCNC3=O	0.915
Cc1cccc(-c2nc3cccc4c3n2CCNC4=O)c1	0.097
O=C1NCCn2c(CN3CCCCCC3)nc3cccc1c32	1
O=C1NN=Cc2c(-c3ccc(F)cc3)[nH]c3cccc1c23	0.073
O=C1NCCn2c(CN3CCN(Cc4ccc5c(c4)OCO5)CC3)nc3cccc1c32	0.12
CN(C)CC(=O)Nc1cnc2c(c1)[nH]c(=O)c1ccccc12	0.165
O=C1NCCn2c(O)nc3cccc1c32	1.4
CC(C)N(Cc1nc2cccc3c2n1CCNC3=O)C(C)C	0.647
COc1ccc(/C=C/c2nc3cccc4c3n2CCNC4=O)cc1	0.142
O=C1NN=C(CN2CCCCC2)c2c[nH]c3cccc1c23	0.027
O=C1NCCn2c(C3CCCCC3)nc3cccc1c32	0.204
CN(C)CCCN(C)C(=O)c1cccc(-c2nc3cccc4c3n2CCNC4=O)c1	0.199
CN(C)CCNC(=O)c1cccc(-c2nc3cccc4c3n2CCNC4=O)c1	0.246
O=C1NN=C(CN2CCOCC2)c2c[nH]c3cccc1c23	0.037
O=C1CCN(Cc2nc3cccc4c3n2CCNC4=O)CC1	0.329
O=C1NN=C(CN2CCC(N3CCCC3)CC2)c2c[nH]c3cccc1c23	0.098
O=C1NCCn2c(C#Cc3ccccc3)nc3cccc1c32	0.044
O=C1NN=Cc2c(-c3ccccc3)[nH]c3cccc1c23	0.01
CC(C)N1CCN(CC(=O)Nc2cnc3c(c2)[nH]c(=O)c2ccccc23)CC1	0.086
CCN(CC)CCNC(=O)c1cccc(-c2nc3cccc4c3n2CCNC4=O)c1	0.449

SMILES	IC50 [µM]
CC(C)N1CCN(c2ccc3[nH]c(=O)c4ccccc4c3n2)CC1	0.179
O=C(NCCN1CCCCC1)c1cccc(-c2nc3cccc4c3n2CCNC4=O)c1	0.376
CCCCCN(CCCCC)Cc1nc2cccc3c2n1CCNC3=O	0.915
O=C1NN=C(CN2CCN(c3ccccn3)CC2)c2c[nH]c3cccc1c23 [drawing 105]	0.025
O=C1CNC(=O)c2cccc3[nH]cc1c23	0.035
O=C1NN=Cc2c(Br)[nH]c3cccc1c23	0.026
COc1ccc2c(c1)c(=O)[nH]c1cccnc12	4.15
O=c1[nH]c2ccc(NCCN3CCOCC3)nc2c2ccccc12	0.339
COc1ccc2[nH]c(=O)c3ccccc3c2n1	0.216
CC(C)(C)OC(=O)[C@@H]1CCCN1Cc1nc2cccc3c2n1CCNC3=O	0.349
CN(C)CC(=O)Nc1ccc2[nH]c(=O)c3ccccc3c2n1	0.098
CC(C)(C)OC(=O)n1cc2c3c(cccc31)C(=O)NCC2	20
O=C1NCCn2c(CN3CCCCCCC3)nc3cccc1c32	0.6
CC(C)(C)OC(=O)n1cc2c3c(cccc31)C(=O)NN=C2	1.2
CCCN(CCC)Cc1nc2cccc3c2n1CCNC3=O	0.204
Cn1cc(-c2nc3cccc4c3n2CCNC4=O)c2ccccc21	0.268
O=C1NN=Cc2cn(Cc3ccccc3)c3cccc1c23	13
Cn1cc2c3c(cccc31)C(=O)NCC2=O	0.028
O=C1NCCn2c(-c3cc(F)cc(F)c3)nc3cccc1c32	0.061
Nc1ccc(C2CNC(=O)c3cccc4[nH]cc2c34)cc1 (centres unmarked)	0.172
Cn1c(-c2ccccc2)c2c3c(cccc31)C(=O)NN=C2	0.047
O=C1NCCn2c(CN3CCN(c4ccccc4)CC3)nc3cccc1c32	1.9
O=C1NN=Cc2c[nH]c3cccc1c23	0.018
O=C1NC=Cc2c[nH]c3cccc1c23	0.161

SMILES	IC50 [µM]
O=C1NN=C(CN2CCCC2)c2c[nH]c3cccc1c23	0.033
O=C1NCCn2c(CN(CCc3ccccc3)Cc3ccccc3)nc3cccc1c32	10.5
O=C1NCCn2c(Cn3ccnc3)nc3cccc1c32	0.738
O=C(CN1CCC(N2CCCC2)CC1)Nc1ccc2[nH]c(=O)c3ccccc3c2n1	0.142
O=C1NCCn2c(CN3CCc4ccccc4C3)nc3cccc1c32	0.193
O=C1NCCn2c(-c3cc(O)c(O)c(O)c3)nc3cccc1c32	0.324
O=C1NCCn2c(-c3cc(O)cc(O)c3)nc3cccc1c32	0.089
O=c1[nH]c2ccc(O)nc2c2ccccc12	0.114
O=C1NCCn2c(CN3CCCc4ccccc43)nc3cccc1c32	0.818
CCN(CC)CC1=NNC(=O)c2cccc3[nH]cc1c23	0.034
O=c1[nH]c2ccc(OCc3ccccc3)nc2c2ccccc12	20
O=C1NCCN2CCc3cccc1c32	2.41
O=C1NN=Cc2c(Br)n(Cc3ccccc3)c3cccc1c23	20
O=C1NN=Cn2cnc3cccc1c32	20
O=C1NCCn2c(-c3ccc(Br)s3)nc3cccc1c32	0.094
CCC(=O)Nc1cnc2c(c1)[nH]c(=O)c1ccccc12	0.111
O=C1NCCn2c(CN3CCOCC3)nc3cccc1c32	0.523
Cn1cc2c3c(cccc31)C(=O)NCC2O (centres unmarked)	0.79
CN(C)Cc1nc2cccc3c2n1CCNC3=O	0.068
COc1ccc(CC(C)c2nc3cccc4c3n2CCNC4=O)cc1 (centres unmarked)	0.128
O=C1NCCc2c[nH]c3cccc1c23	0.366
CN(Cc1nc2cccc3c2n1CCNC3=O)c1ccccc1	0.28
CC(=O)OCc1ccc(-c2nc3cccc4c3n2CCNC4=O)o1	0.068
O=C1NCCn2c(CN3CCCCC3)nc3cccc1c32	0.801

SMILES	IC50 [µM]
O=C1NCCn2ccc3cccc1c32	0.7
O=C1NCCn2c(-c3cccc(Br)c3)nc3cccc1c32	0.106
O=C(O)c1cccc(-c2nc3cccc4c3n2CCNC4=O)c1	0.155
O=C1NCCn2c(CN3CC4CC3CN4Cc3ccccc3)nc3cccc1c32 (centres unmarked)	0.115
CCN(CC)CCCNC(=O)c1cccc(-c2nc3cccc4c3n2CCNC4=O)c1	0.179
O=C(CN1CCC(N2CCCC2)CC1)Nc1cnc2c(c1)[nH]c(=O)c1ccccc12	0.134
O=C1NCCn2c(COCc3ccccc3)nc3cccc1c32	0.434
O=C1NCCn2c(-c3ccc([N+](=O)[O-])o3)nc3cccc1c32	0.021
O=C(O)CCc1nc2cccc3c2n1CCNC3=O	1.44
CN(C)CCN(C)Cc1nc2cccc3c2n1CCNC3=O	0.288
CN1CCN(Cc2nc3cccc4c3n2CCNC4=O)CC1	1.57
O=C1NC=C(Br)c2c[nH]c3cccc1c23	0.061
O=c1[nH]c2ccc(Cl)nc2c2ccccc12	2.1
COc1cc2c(cc1OC)CN(Cc1nc3cccc4c3n1CCNC4=O)CC2	0.713
CN(Cc1nc2cccc3c2n1CCNC3=O)C1CCCCC1	0.46
COc1ccc(N(C)Cc2nc3cccc4c3n2CCNC4=O)cc1	0.121
O=C1NCCn2c(-c3ccc(Br)cc3)nc3cccc1c32	0.054
COC(=O)C1CN(Cc2nc3cccc4c3n2CCNC4=O)CCC1=O (centres unmarked)	0.441
Nc1cnc2c(c1)[nH]c(=O)c1ccccc12	0.18
O=C1NCCn2c(-c3ccc4ccccc4n3)nc3cccc1c32	0.299
O=C(O)c1ccc(-c2nc3cccc4c3n2CCNC4=O)cc1	1.19
O=C1NCCn2c(-c3cccc(C(=O)N4CCN(Cc5ccc6c(c5)OCO6)CC4)c3)nc3cccc1c32	0.635
O=C1NCCn2c(-c3ccc(O)cc3O)nc3cccc1c32	0.186
O=C1NCCn2c(-c3ccccc3F)nc3cccc1c32	0.329

SMILES	IC50 [µM]
O=C(NCCN1CCOCC1)c1cccc(-c2nc3cccc4c3n2CCNC4=O)c1	0.448
O=C1NCC(c2ccccc2)c2c[nH]c3cccc1c23 (centres unmarked)	0.176
CN(C)CCN(Cc1ccccc1)Cc1nc2cccc3c2n1CCNC3=O	0.153
COCc1nc2cccc3c2n1CCNC3=O	0.227
CN(CCC1CCCN1C)C(=O)c1cccc(-c2nc3cccc4c3n2CCNC4=O)c1 (centres unmarked)	1.24
CN1CCN(CC2=NNC(=O)c3cccc4[nH]cc2c34)CC1	0.037
CC(C)(C)OC(=O)Cn1c(Br)c2c3c(cccc31)C(=O)NN=C2	24.1
O=C1NCCn2c(CN3CCN(Cc4ccccc4)CC3)nc3cccc1c32	2.19
O=C1NCCn2c(-c3cccnc3)nc3cccc1c32	0.168
O=C1NCCn2c(-c3ccc(-c4ccccc4Cl)o3)nc3cccc1c32	0.145
CCN(CC)Cc1nc2cccc3c2n1CCNC3=O	0.535
O=C1NCCn2c(-c3ccc(-c4cccc(Cl)c4)o3)nc3cccc1c32	0.2
CC(C)(C)OC(=O)N1CCN(Cc2nc3cccc4c3n2CCNC4=O)CC1	0.266
O=C1NCCn2cnc3cccc1c32	0.299
COC(=O)C1CN(C(=O)c2cccc(-c3nc4cccc5c4n3CCNC5=O)c2)CCC1=O (centres unmarked)	0.375
O=C1NCCn2c(CN3CCCCC3CO)nc3cccc1c32 (centres unmarked)	0.337
CCOC(=O)[C@@H]1C[C@H]1c1nc2cccc3c2n1CCNC3=O	0.108
Cc1ccc(-c2nc3cccc4c3n2CCNC4=O)cc1	0.11
O=C1NN=C(CN2CCN(c3ccccn3)CC2)c2c[nH]c3cccc1c23 [drawing 106]	0.037
O=C1NN=C(CN2CCN(Cc3ccccc3)CC2)c2c[nH]c3cccc1c23	0.141
CC(Cc1nc2cccc3c2n1CCNC3=O)c1ccccc1 (centres unmarked)	0.13
